Measurements taken from patent US20260200849A1, “CATIONIC LIPIDS AND PREPARATION METHOD THEREOF” (RiboX Therapeutics HK Limited, priority 2024, published 2026).
Several values for one entry are separate records, joined by “and”; a condition that tells them apart may be missing. Equal values may be shown once.

Columns and labels:
C57BL/6J mice = assay: In vivo expression by ID, whole-body/injection site skin/lymph node luminescence; conditions: intradermal 0.15 mg/kg, 72 h post injection, female C57BL/6J mice N=3, Formulation 001, RNA 331
Description: 7-8 week old, female C57BL/6J mice (N=3) were injected with 0.15 mg*kg−1 of RNA-LNPs encoding for firefly-luciferase by intradermal injection. At 72-hours post injection, animals were intraperitoneally injected with 15 mg/mi of Luciferin substrate and whole-body/injection site skin/lymph node luminescence were determined by a bioluminescent in vivo imaging system (IVIS).

[1] = LNP size and polydispersity index (PDI) by dynamic light scattering (Zetasizer); type: physicochemical; conditions: for Size (nm): Formulation No. 010 (Ionizable lipid:DSPC:cholesterol:DSPE-PEG2000 = 38:30:30:2, N/P 6), RNA No. 331
Description: (§1) The LNP size and polydispersity index (PDI), determined by dynamic light scattering (DLS), and zeta potential were measured by a Zetasizer machine (Malvern). RNA concentration and encapsulation efficacy (EE %) were analyzed by the Quant-IT Ribogreen kit by calculating the percentage encapsulation at 100%—(RNA-LNPs/RNA-LNPs with Triton X-100).

Hep G2 cells [2] = assay: In vitro toxicity: Hep G2 cell viability by CellTiter-Glo; type: cell-based; conditions: 72 hours post transfection, cell only = 100%
Description: 2E5 Hep G2 cells were transfected with 1 μg/mL RNA-LNPs. At 72 hours post transfection, cell viability (2-well repeat) was determined with the CellTiter-Glo® reagent kit, according to the kit protocol, measured by a luminometer. Cell only as control (100%).
The cell viability was calculated according to the following formula: […]

Hep G2 cells [3] = assay: In vitro expression: luciferase activity in Hep G2 cells transfected with RNA-LNPs; type: cell-based; conditions: 100 ng/mL RNA-LNPs, 72 hours post transfection
Description: 2E5 Hep G2 cells were transfected with 100 ng/mL of RNA-LNPs encoding for firefly-luciferase. At 72 hours post transfection, the cells were washed and lysed. The luciferase expression (2-well repeat) was determined in the cell lysates with the luciferase assay reagent kit (Promega), according to the kit protocol, luciferase activity was measured by a luminometer.

Balb/c mice = assay: In vivo expression by IV, 0.05 mg/kg luciferase RNA-LNPs, IVIS luminescence; conditions: Formulation No. 010, RNA No. 331, female Balb/c mice, 0.05 mg*kg−1 intravenous; for Whole body at 24 h (p/s) (Mean): 24 hours post injection; for Whole body at 72 h (p/s) (Mean): 72 hours post injection
Summary of the method: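 IVIS bioluminescence was read after IP luciferin (15 mg/ml): whole-body at 24 and 72 h, or whole-body/liver/spleen at 24 h. Dosing was a single IV injection of 0.05 mg*kg−1 RNA-LNPs encoding firefly luciferase into 7-8 week old female Balb/c mice, N=3.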

injection site skin = assay: In vivo tolerability after intradermal injection: H&E staining of injection site skin; parameters: species or system C57BL/6J mice; key to Infiltration, mononuclear cells, dermis/subcutaneous, focal, Grade / Edema, subcutaneous, focal, Grade / Erosion, focal, Grade / Skin, Grade: 1==minimal; 2=mild; 3=moderate; 4=marked; 5=severe; N=Normal; NA=Not applicable; —=No data; conditions: intradermal 0.15 mg/kg, 72 h, Formulation 001, RNA 331; for Edema, subcutaneous, focal, Grade / Erosion, focal, Grade / Infiltration, mononuclear cells, dermis/subcutaneous, focal, Grade: per animal; for Total score: sum of lesion grades of the group (N=3)
Description: 7-8 week old, female C57BL/6J mice (N=3) were injected with 0.15 mg*kg−1 of RNA-LNIPs encoding for firefly-luciferase by intradermal injection. At 72-hours post injection, injection site skin from each animal was collected in 10% formalin, for H&E staining. PBS group (N=2) as control. (Note: 1==minimal, 2=mild, 3=moderate, 4=marked, 5=severe; N=Normal; NA=Not applicable; —=No data)

hEPO = assay: In vivo expression by IM: serum hEPO concentration by ELISA; conditions: IM 0.075 mg/kg, male C57BL/6J mice N=3, Formulation 001, RNA 019
Description: Circular RNA payloads were suspended in 25 mM Acetate Buffer (pH 4.5). To form LNPs, three volumes of human erythropoietin (hEPO) encoding cirRNA (SEQ ID NO:2), were mixed with one volume of lipids in ethanol solution by microfluidic mixing with the INano™ L+ (Micro& Nano) at a flow rate of 12 ml/min. The molar ratio of ionizable lipid to ribonucleotide was 6. After encapsulation, the particles were dialyzed twice against PBS. The LNP formulation was concentrated to targeted RNA concentration by Amicon® Ultra Centrifugal Filter (100 kDa MWCO) and filtered by a 0.65/0.22 um sterile filter.
6-8 week old, male C57BL/6J mice (N=3) were injected with 0.075 mg*kg−1 of RNA-LNPs encoding for hEPO by intramuscular injection. At 2-/6-/24-/48-/72 h-hours post injection, about 80 μL blood will be harvested and immediately added to the procoagulant containing tube. Stand for 30 min at room temperature and then centrifuged at 2500 g×10 min to obtain serum. About 30 μL serum samples will be aliquoted for hEPO concentration detection by ELISA kit (STEMCELL Technologies).

[4] = RNA encapsulation efficacy (EE %) by Quant-IT Ribogreen kit; type: physicochemical; conditions: LNP
Description: as §1

[5] = Formulation No. 001, RNA No. 019 (hEPO)
[6] = Formulation No. 001, RNA No. 331
[7] = Formulation No. 010, RNA No. 331
[8] = 1 μg/mL RNA-LNPs, Formulation 001, RNA 331
[9] = Formulation No. 010, RNA No. 331, 1 μg/mL RNA-LNPs
[10] = Formulation No. 010, RNA No. 331 (firefly-luciferase)

SMILES	Injection site Skin (p/s) (C57BL/6J mice)	Lymph node (p/s) (C57BL/6J mice)	Whole body (p/s) (C57BL/6J mice)	PDI [1, 5]	PDI [1, 6]	Size [1, 6] [nm]	Size (nm) [1] [nm]	PDI [1, 7]	In vitro cell viability (%) (Mean) (Hep G2 cells [2]; [8])	In vitro cell viability (%) (Mean) (Hep G2 cells [2]; [9])	In vitro Expression (Mean) (Hep G2 cells [3]; Formulation 001, RNA 331)	In vitro Expression (Mean) (Hep G2 cells [3]; [10])	Whole body at 24 h (p/s) (Mean) (Balb/c mice)	Whole body at 72 h (p/s) (Mean) (Balb/c mice)	Edema, subcutaneous, focal, Grade (injection site skin)	Erosion, focal, Grade (injection site skin)	Infiltration, mononuclear cells, dermis/subcutaneous, focal, Grade (injection site skin)	Total score (injection site skin)	EE (%) [4, 6] [%]	EE (%) [4, 7] [%]	other results
CCCCC/C=C\C/C=C\CCCCCCCC(=O)NC(COC(=O)NCCN1CCCCCC1)C(=O)OCCCCCCCC(=O)OC(CCCCCCCC)CCCCCCCC (stereo not shown) [Lipid 550]	1.33E+07	2.06E+06	3.09E+07	0.04	0.15	72.66	67.81	0.13	67.09	87.47	1.89E+05	5.74E+05	2.36E+08	4.96E+07	1	1 and — (2×)	1	7	94.50	94.88	Size [1, 5]: 66.58 nm; hEPO conc. (ng/mL) at 2 h (hEPO): 1.56 ng/mL; hEPO conc. (ng/mL) at 6 h (hEPO): 6.19 ng/mL; hEPO conc. (ng/mL) at 24 h (hEPO): 9.69 ng/mL; hEPO conc. (ng/mL) at 48 h (hEPO): 2.38 ng/mL; hEPO conc. (ng/mL) at 72 h (hEPO): 0.67 ng/mL; EE (%) [4, 5]: 92.20%
CCCCC/C=C\C/C=C\CCCCCCCC(=O)N[C@@H](COC(=O)NCCN1CCCCC1)C(=O)OCCCCCCCC(=O)OC(CCCCCCCC)CCCCCCCC [Lipid 601]	9.69E+06	1.89E+06	5.92E+07	0.04	0.09	80.16	62.33	0.08	81.18	98.14	9.94E+05	6.24E+05	3.82E+08	8.02E+07	1	—	1	6	95.30	95.98	Size [1, 5]: 73.40 nm; hEPO conc. (ng/mL) at 2 h (hEPO): 1.12 ng/mL; hEPO conc. (ng/mL) at 6 h (hEPO): 7.35 ng/mL; hEPO conc. (ng/mL) at 24 h (hEPO): 12.74 ng/mL; hEPO conc. (ng/mL) at 48 h (hEPO): 3.29 ng/mL; hEPO conc. (ng/mL) at 72 h (hEPO): 1.06 ng/mL; EE (%) [4, 5]: 90.47%
CCCCC/C=C\C/C=C\CCCCCCCC(=O)N[C@@H](COC(=O)NCCN1CCCCCC1)C(=O)OCCCCCCCC(=O)OC(CCCCCCCC)CCCCCCCC [Lipid 602]	3.02E+07	3.01E+06	1.40E+08	0.04	0.08	76.34	64.73	0.16	82.68	84.17	5.82E+05	6.30E+05	2.66E+08	1.24E+08	1 (2×) and 2	—	1	7	97.94	97.13	Size [1, 5]: 67.47 nm; hEPO conc. (ng/mL) at 2 h (hEPO): 1.02 ng/mL; hEPO conc. (ng/mL) at 6 h (hEPO): 5.02 ng/mL; hEPO conc. (ng/mL) at 24 h (hEPO): 7.65 ng/mL; hEPO conc. (ng/mL) at 48 h (hEPO): 2.44 ng/mL; hEPO conc. (ng/mL) at 72 h (hEPO): 0.76 ng/mL; EE (%) [4, 5]: 95.79%
CCCCC/C=C\C/C=C\CCCCCCCC(=O)N[C@H](COC(=O)NCCN1CCCCCC1)C(=O)OCCCCCC(=O)OC(CCCCCCCC)CCCCCCCC [Lipid 730]	1.63E+07	3.33E+06	2.81E+07		0.05	76.53	59.50	0.09	75.29	98.64	5.98E+05	7.72E+05	2.24E+08	8.49E+07	1	—	1	6	97.08	96.20	
